Legend:
[1] = quantification of MB-005 in mouse eyes by LC-ESI-MS/MS; format: in vivo; conditions: 1 mg dose oral gavage
Method: MB-005 (1 mg/mouse) was administrated by oral gavage to C57BL/6J mice, which were then kept in the dark for 4-24 h. Then, mice were euthanized, and their eyes were homogenized in 1 ml of 10 mM sodium phosphate buffer, pH 7.4, containing 50% methanol (v/v). The resulting mixture was extracted with 4 ml EtOAc. […] This solution (100 μl) was analyzed by liquid chromatography—electrospray ionization—MS/MS (LC-ESI-MS/MS) (4.6 mm×150 mm; Agilent ZORBAX Eclipse XDB-C18) with a gradient of acetonitrile in water (0%-100% in 30 min) as the eluent at a flow rate of 0.5 ml/min.
To confirm the ocular distribution of this compound series, we directly measured the quantity of MB-005 in the eye by mass spectrometry after a 1 mg dose. […] This minimal change in ocular MB-005 concentration contrasts with the ˜3-fold greater inhibition of visual cycle function observed at 4 h versus 24 h for this compound.

Abca4−/−Rdh8−/− mice = assay: protection against light-induced retinal degeneration (OCT, ONL thickness); format: in vivo, mouse
Method: FIGS. 7(A-B) illustrate protective effects of MB compounds against light-induced retinal degeneration in Abca4^−/−Rdh8^−/− mice. Drugs were administrated at the indicated doses to 4-6 week-old Abca4^−/−Rdh8^−/− mice (weight ˜20 g) by oral gavage. After a 24 h dark adaptation, mice were exposed to 10,000 lux light for 30 min and then returned to a dark environment for 3 days. (A) Representative OCT images of mice treated with MB compounds. A dramatic decrease in the ONL indicates advanced retinal degeneration. The black scale beside the DMSO image represents 50 μm. (B) Retinal protective effects exerted by MB compounds as quantified by average ONL thickness. Only non-scattering ONL layers were measured. For images in which the ONL layer boundary was obscured due to light scattering, the ONL length was recorded as 0 μm. Error bars represent standard deviations; n=3-5 for each group.
Abca4^−/−Rdh8^−/− mice on a C57BL/6J background were generated as previously described. Male and female WT mice with C57BL/6J backgrounds were obtained from The Jackson Laboratory. Abca4^−/−Rdh8^−/− mice used in this study were homozygous for the Leu450 allele of Rpe65 as determined by a genotyping protocol published previously and free of Crb1/rd8 and rd/rd mutations Animals were housed either in the animal facility at the Case Western Reserve University School of Medicine, where they received a standard chow diet (LabDiet 5053) and were maintained under a 12-h light (˜300 lux) and 12-h dark cycle or at the Cole Eye Institute animal facility where they were. Mice were dark adapted overnight prior to all experiments. A cohort of Rdh8^−/−Abca4^−/− or C57BL/6J mice was used when they reached the age of 1 to 2 months, and both sexes were used evenly. All tested primary amines were suspended in 100 μl soybean oil with less than 10% (v/v) DMSO and were administered by oral gavage with a 22-gauge feeding needle. Experimental manipulations in the dark were done under dim red light transmitted through a Kodak No. 1 Safelight Filter (transmittance >560 nm).
After dark adaptation for 24 h, Abca4^−/−Rdh8^−/− mice with pupils dilated by 1% tropicamide were exposed to fluorescent light (10,000 lux; 150 W spiral lamp; Commercial Electric) for 30 min in a white paper bucket (Papersmith) and then kept in the dark for an additional 3 days. Development of retinal degeneration was then determined by ultra-high-resolution spectral domain OCT (SD-OCT; Bioptigen) and ERG as previously described.
To examine the ability of […] cause retinal damage in the absence of treatment with protective agents. Three days later retinas were imaged in vivo by optical coherence tomography, with preservation of outer nuclear layer thickness and light scattering properties serving as markers for retinal health. MB-001, which is capable of preventing light-induced retinal degeneration through both direct RPE65 inhibition as well as retinal sequestration served as a positive control for these experiments.

RPE65 = RPE65 (Bos taurus, UniProt Q28175); assay: in vitro retinoid isomerase activity assay with bovine RPE microsomes; conditions: up to concentrations of 50 μM
RPE65, sequence (Q28175 whole entry): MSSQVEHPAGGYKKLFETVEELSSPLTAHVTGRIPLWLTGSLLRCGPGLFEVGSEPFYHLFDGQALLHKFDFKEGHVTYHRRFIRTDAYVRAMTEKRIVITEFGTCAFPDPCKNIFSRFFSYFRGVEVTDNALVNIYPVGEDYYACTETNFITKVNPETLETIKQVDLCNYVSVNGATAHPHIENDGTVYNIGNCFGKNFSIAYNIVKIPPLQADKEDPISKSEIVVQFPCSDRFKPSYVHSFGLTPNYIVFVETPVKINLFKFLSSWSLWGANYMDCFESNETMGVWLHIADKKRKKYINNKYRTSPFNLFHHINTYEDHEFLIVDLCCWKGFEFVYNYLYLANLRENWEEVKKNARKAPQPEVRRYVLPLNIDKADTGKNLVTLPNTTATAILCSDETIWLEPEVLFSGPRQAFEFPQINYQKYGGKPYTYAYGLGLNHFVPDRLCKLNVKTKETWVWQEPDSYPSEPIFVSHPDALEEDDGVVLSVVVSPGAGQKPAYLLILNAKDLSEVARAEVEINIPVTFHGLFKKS
Method: Primary amines were pre-incubated with bovine RPE microsomes at room temperature for 5 min, then all-trans-retinol was added and the mixtures were incubated at 37° C. All incubation mixtures were quenched by the addition of methanol after 1 h of incubation. Inhibition of RPE65 enzymatic activity was measured as a decline in 11-cis-retinol production.
Synthesized primary amine (1 μl in DMF, with the final concentration ranging between 50 nM and 50 μM) was added to 10 mM Bis-Tris propane/HCl buffer, pH 7.4, containing 150 μg RPE microsomes, 1% BSA, 1 mM disodium pyrophosphate, and 20 μM aporetinaldehyde-binding protein 1 (CRALBP). The resulting mixture was pre-incubated at room temperature for 5 min. Then, all-trans-retinol (1 μl in DMF, at a final concentration of 20 μM) was added. The resulting mixture was incubated at 37° C. for 1 h. The reaction was quenched by adding 300 μl methanol, and products were extracted with 300 μl hexanes. Production of 11-cis-retinol was quantified by normal-phase HPLC with 10% (v/v) EtOAc in hexanes as the eluent at a flow rate of 1.4 ml/min. Retinoids were detected by monitoring their absorbance at 325 nm and quantified based on a standard curve representing the relationship between the amount of synthetic 11-cis-retinol standard and the area under the corresponding chromatographic peak.
To test these structural predictions, we examined the inhibitory activity of the compounds against RPE65 activity in an in vitro retinoid isomerase assay using bovine RPE microsomes as the enzyme source.

ocular level of MB-005 ([1]; 6 h after treatment): ~140 ng/eye
ocular level of MB-005 ([1]; 24 h post-treatment time point versus 6 h): declined only slightly
inhibition against retinoid isomerization (RPE65): minimal or no inhibition
Compound: CC(C)c1cc(OCC2CCCCC2)cc(C(O)CCN)c1 (stereo not drawn) [MB-005, 3-Amino-1-(3-(cyclohexylmethoxy)-5-isopropylphenyl)propan-1-ol]
protective effect compared to the MB-001 control (Abca4−/−Rdh8−/− mice; 0.5 mg/mouse oral gavage 24 h before light): ~50%
protection against light-induced retinal degeneration (Abca4−/−Rdh8−/− mice; 2 mg/mouse oral gavage 24 h before light): fully protected
protective effect compared to the MB-001 control (Abca4−/−Rdh8−/− mice; doubling of 0.5 mg/mouse (1 mg/mouse), oral gavage 24 h before light): ~80%

Reference: US12144788B2, “Visual cycle modulators” (CASE WESTERN RESERVE UNIVERSITY, priority 2017, dated 2024)
